For one compound, EC50 and inhibition results are on record in ChEMBL document CHEMBL6092226, “Tilting the Scales toward EGFR Mutant Selectivity: Expanding the Scope of Bivalent "Type V" Kinase Inhibitors” (J Med Chem, 2024).

pEC50: −log10 of the molar value. The source made the active and inactive calls. The calls are words filed in the database; no cut-off is given here.

Test [1] has as its system BaF3. Type of test: functional, cell-based. Particulars: Mus musculus, BaF3, 72 h.
Test [2] is described as follows: cells. The note with it: Homo sapiens, NCI-H1975, 72 h.
For test [3], the species on record is Homo sapiens. Put plainly: Inhibition of DMPK2 (unknown origin) at 1 uM by Eurofins DiscoverX KINOMEscan analysis relative to control.
In test [4] the target is T1, Tyrosine-protein kinase JAK3 (Homo sapiens) (UniProt P52333).
T1 sequence (whole entry): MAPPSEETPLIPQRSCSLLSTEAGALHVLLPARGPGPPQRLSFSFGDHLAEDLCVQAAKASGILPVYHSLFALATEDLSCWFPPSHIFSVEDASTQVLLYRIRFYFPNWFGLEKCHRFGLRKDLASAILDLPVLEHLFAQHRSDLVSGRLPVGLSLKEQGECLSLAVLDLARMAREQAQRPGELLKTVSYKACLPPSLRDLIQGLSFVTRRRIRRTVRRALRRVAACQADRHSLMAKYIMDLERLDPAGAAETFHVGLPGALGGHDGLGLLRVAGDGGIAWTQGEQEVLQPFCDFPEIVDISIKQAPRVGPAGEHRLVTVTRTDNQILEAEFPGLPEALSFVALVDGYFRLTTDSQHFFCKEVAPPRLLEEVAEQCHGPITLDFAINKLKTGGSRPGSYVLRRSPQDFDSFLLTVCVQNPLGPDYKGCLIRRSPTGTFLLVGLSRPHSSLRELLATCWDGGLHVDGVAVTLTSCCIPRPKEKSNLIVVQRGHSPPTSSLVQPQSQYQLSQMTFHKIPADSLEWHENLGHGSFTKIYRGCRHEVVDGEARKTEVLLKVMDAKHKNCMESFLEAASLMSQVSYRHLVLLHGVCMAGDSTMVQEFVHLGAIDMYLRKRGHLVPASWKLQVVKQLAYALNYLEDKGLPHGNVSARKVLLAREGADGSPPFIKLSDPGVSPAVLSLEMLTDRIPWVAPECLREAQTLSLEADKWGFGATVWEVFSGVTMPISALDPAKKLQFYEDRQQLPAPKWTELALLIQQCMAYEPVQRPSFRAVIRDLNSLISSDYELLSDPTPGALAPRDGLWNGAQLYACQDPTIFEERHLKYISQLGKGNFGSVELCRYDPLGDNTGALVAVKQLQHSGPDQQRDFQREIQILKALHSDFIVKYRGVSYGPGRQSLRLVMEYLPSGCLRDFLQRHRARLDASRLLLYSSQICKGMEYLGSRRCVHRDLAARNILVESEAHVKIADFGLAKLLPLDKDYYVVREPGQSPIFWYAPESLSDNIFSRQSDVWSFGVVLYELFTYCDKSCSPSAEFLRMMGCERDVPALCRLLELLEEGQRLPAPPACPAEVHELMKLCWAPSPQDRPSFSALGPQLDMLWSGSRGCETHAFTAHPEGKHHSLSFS
Put plainly: Inhibition of JAK3 (unknown origin) at 1 uM by Eurofins DiscoverX KINOMEscan analysis.

Test [5] concerns BaF3. Put plainly: cells. The note with it: Mus musculus, BaF3, 72 h.
Test [6] relates to HCC827. Put plainly: cells. The note with it: Homo sapiens, HCC827, 72 h.
Test [7] relates to BaF3. Description: cells. Particulars: Mus musculus, BaF3, 72 h. This is another data set of the same source.
The target in test [8] is Myosin-IIIa (Homo sapiens) (UniProt Q8NEV4). Description: Inhibition of MYO3A (unknown origin) at 1 uM by Eurofins DiscoverX KINOMEscan analysis relative to control.
Myosin-IIIa (Homo sapiens), sequence (Q8NEV4 whole entry): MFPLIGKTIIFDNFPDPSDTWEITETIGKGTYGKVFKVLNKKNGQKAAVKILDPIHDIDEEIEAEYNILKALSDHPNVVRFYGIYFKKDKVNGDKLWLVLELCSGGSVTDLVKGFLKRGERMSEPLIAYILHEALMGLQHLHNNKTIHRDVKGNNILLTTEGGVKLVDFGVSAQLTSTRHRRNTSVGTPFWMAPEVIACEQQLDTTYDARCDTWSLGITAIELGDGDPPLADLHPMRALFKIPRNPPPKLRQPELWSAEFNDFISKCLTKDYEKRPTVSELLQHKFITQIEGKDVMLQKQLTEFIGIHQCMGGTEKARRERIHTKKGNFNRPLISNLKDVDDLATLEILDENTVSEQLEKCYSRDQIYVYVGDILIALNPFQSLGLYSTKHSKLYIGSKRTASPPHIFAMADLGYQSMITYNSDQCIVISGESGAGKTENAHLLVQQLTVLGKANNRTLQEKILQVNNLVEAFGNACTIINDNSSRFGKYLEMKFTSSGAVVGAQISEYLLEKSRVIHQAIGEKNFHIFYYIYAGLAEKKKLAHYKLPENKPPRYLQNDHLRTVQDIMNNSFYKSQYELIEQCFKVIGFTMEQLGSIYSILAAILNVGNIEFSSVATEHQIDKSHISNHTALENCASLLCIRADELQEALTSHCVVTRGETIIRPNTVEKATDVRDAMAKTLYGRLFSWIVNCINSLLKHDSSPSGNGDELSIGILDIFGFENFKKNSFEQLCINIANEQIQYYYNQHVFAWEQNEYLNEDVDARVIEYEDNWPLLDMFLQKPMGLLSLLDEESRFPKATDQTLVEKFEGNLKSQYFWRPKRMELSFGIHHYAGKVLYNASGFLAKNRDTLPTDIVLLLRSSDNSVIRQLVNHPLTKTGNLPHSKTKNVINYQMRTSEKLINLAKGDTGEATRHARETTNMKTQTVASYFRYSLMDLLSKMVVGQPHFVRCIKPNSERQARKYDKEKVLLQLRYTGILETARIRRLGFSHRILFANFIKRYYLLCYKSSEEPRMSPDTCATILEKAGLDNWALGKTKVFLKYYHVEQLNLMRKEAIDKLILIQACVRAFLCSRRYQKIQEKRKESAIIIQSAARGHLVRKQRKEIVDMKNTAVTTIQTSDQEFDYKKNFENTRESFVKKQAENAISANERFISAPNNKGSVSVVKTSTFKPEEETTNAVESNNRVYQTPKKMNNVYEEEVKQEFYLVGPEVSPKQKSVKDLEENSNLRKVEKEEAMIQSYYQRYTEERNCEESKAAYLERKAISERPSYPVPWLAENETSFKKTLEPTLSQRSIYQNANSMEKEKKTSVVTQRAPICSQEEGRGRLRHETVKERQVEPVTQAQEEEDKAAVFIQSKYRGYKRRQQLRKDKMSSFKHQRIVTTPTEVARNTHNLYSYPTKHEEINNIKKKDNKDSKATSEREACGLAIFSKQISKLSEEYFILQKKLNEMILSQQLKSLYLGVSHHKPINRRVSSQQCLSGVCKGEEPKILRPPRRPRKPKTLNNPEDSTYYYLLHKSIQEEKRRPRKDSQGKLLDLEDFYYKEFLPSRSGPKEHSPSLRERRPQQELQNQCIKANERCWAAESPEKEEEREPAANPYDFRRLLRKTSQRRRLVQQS
Test [9] addresses T2, Tyrosine-protein kinase Tec (Homo sapiens) (UniProt P42680).
T2 sequence (whole entry): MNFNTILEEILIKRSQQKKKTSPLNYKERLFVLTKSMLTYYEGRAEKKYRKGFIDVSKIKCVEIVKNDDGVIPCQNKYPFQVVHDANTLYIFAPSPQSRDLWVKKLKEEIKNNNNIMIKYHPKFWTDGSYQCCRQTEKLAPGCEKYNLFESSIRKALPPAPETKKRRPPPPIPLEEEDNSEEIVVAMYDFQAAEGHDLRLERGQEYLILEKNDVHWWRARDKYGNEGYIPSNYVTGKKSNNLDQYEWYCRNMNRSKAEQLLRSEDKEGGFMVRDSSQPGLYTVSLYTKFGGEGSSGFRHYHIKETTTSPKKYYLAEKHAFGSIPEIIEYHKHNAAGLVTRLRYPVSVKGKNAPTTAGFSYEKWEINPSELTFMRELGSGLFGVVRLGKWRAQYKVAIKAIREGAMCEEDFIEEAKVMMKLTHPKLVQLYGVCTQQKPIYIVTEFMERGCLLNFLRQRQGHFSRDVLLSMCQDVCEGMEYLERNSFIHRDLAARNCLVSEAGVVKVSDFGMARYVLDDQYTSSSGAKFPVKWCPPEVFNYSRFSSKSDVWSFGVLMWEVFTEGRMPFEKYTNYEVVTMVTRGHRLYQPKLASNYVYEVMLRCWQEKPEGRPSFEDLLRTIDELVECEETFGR
Description: Inhibition of TEC (unknown origin) at 1 uM by Eurofins DiscoverX KINOMEscan analysis.

The target of test [10] is Tyrosine-protein kinase BTK (Homo sapiens) (UniProt Q06187). Put plainly: Inhibition of BTK (unknown origin) at 1 uM by Eurofins DiscoverX KINOMEscan analysis.
Tyrosine-protein kinase BTK (Homo sapiens), sequence (Q06187 whole entry): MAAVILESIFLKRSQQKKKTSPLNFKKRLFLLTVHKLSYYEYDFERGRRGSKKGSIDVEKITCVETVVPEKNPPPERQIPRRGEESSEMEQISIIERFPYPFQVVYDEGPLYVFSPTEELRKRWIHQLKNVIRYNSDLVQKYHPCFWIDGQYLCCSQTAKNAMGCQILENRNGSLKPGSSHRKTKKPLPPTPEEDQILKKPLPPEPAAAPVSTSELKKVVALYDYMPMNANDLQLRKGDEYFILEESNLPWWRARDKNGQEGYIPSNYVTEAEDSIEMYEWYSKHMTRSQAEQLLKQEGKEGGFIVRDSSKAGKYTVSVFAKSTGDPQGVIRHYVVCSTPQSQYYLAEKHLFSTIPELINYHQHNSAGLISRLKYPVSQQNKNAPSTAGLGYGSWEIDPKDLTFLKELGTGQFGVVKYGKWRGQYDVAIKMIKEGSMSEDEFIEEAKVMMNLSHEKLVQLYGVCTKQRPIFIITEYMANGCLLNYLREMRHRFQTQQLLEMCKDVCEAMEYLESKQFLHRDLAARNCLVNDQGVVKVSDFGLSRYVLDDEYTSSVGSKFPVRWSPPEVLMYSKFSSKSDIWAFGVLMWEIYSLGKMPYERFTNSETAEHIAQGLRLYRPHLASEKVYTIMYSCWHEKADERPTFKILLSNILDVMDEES
In test [11] the test system is BaF3. Put plainly: cells. Particulars: Mus musculus, BaF3, 72 h. The source holds these as a separate data set.
Test [12] concerns BaF3. Put plainly: Antiproliferative activity against mouse BaF3 cells harboring EGFR exon 19del mutant incubated for 72 hrs by MTT assay. The note with it: BaF3, 72 h. The test is classed as functional, cell-based.
Test [13] has as its target T3, Cytoplasmic tyrosine-protein kinase BMX (Homo sapiens) (UniProt P51813).
T3 sequence (whole entry): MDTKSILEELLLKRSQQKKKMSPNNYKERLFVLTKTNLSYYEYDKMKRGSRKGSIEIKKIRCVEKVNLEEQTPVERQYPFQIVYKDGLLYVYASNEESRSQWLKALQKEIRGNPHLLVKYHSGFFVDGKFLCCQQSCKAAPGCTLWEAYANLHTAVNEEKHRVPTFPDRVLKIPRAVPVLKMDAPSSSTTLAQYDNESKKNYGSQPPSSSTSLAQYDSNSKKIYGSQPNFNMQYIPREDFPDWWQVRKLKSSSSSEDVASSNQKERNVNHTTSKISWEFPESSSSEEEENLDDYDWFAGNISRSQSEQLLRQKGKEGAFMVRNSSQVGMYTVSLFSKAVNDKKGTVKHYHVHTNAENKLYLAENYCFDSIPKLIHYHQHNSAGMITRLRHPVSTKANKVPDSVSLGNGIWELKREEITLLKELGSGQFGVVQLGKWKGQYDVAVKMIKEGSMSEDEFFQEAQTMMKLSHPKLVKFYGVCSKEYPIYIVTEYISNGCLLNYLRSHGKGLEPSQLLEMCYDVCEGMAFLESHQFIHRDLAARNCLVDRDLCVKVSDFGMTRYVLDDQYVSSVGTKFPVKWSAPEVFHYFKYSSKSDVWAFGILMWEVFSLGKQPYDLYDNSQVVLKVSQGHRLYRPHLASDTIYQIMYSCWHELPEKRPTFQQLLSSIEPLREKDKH
Description: Inhibition of BMX (unknown origin) at 1 uM by Eurofins DiscoverX KINOMEscan analysis.

The pEC50 is the negative decadic logarithm of the EC50, by convention in mol/L. The inhibition is the drop in the measured response relative to a control, in per cent. For `C=CC(=O)Nc1ccc(OC)c(Nc2cc(-c3[nH]c(SC)nc3-c3cccc(NC(=O)c4cccc(O)c4CN4Cc5ccccc5C4=O)c3)ccn2)c1`, the pEC50 was 5.41 in test [1]; 6.48 in test [2]; 6.37 in [5]; 6.80 in test [6]; 6.12 in [7]; 6.82 in test [11]. In test [12], the pEC50 is 6.02. Besides, the inhibition in test [3] and in test [8] was less than 10% in each case. Besides, the inhibition result in test [4], in test [9], in [10] and in test [13] was “inactive” in each case.
